In ChEMBL document CHEMBL4261498, “Synthesis, characterization, and radioprotective activity of α,β-unsaturated aryl sulfone analogs and their Tempol conjugates” (Medchemcomm, 2017):
Activity calls are given as the source filed them. No cut-off for these calls is given here.

Columns and labels:
HUVEC [1] = test: (§1) Radioprotective activity against 5 Gy gamma radiation-mediated cell damage in HUVEC assessed as early apoptotic cells at 10 uM preincubated for 2 hrs followed by 5 Gy gamma irradiation and measured after 24 hrs by annexin-V-FITC/propidium iodide staining-based flow cytometric method (reference value: 21.2%); assay type: functional, Homo sapiens
HUVEC [2] = test: as §1, with “late” for “early”, “0.1” for “10”, “9.5%)” for “21.2%)”; assay type: functional, Homo sapiens
HUVEC [3] = test: (§2) Radioprotective activity against 5 Gy gamma radiation-mediated cell damage in HUVEC assessed as viable cells at 1 uM preincubated for 2 hrs followed by 5 Gy gamma irradiation and measured after 24 hrs by annexin-V-FITC/propidium iodide staining-based flow cytometric method (reference value: 65.8%); assay type: functional; details: Homo sapiens, light or radiation study, read-out: Activity
HUVEC [4] = test: Radioprotective activity against 5 Gy gamma radiation-mediated cell damage in HUVEC assessed as decrease in caspase-3 activation at 0.1 to 10 uM by Western blot method; assay type: functional, cell-based; details: Homo sapiens
HUVEC [5] = test: Radioprotective activity against 5 Gy gamma radiation-mediated cell damage in HUVEC assessed as increase in Bcl-2 levels at 0.1 to 10 uM by Western blot method; assay type: functional, cell-based; details: Homo sapiens
HUVEC [6] = test: Radioprotective activity against 5 Gy gamma radiation-mediated cell damage in HUVEC assessed as reduction of total p53 levels at 0.1 to 10 uM by Western blot method; assay type: functional, cell-based; details: Homo sapiens
HUVEC [7] = test: (§3) Radioprotective activity against 5 Gy gamma radiation-mediated cell damage in HUVEC assessed as necrotic cells at 1 uM preincubated for 2 hrs followed by 5 Gy gamma irradiation and measured after 24 hrs by annexin-V-FITC/propidium iodide staining-based flow cytometric method (reference value: 3.5%); assay type: functional, Homo sapiens
HUVEC [8] = test: as §3, with “0.1” for “1”; assay type: functional, Homo sapiens
HUVEC [9] = test: Radioprotective activity against 5 Gy gamma radiation-mediated cell damage in HUVEC assessed as necrotic cells at 10 uM preincubated for 2 hrs followed by 5 Gy gamma irradiation and measured after 24 hrs by annexin-V-FITC/propidium iodide staining-based flow cytometric method (reference value: 3.5%); assay type: functional, Homo sapiens
HUVEC [10] = test: Radioprotective activity against 5 Gy gamma radiation-mediated cell damage in HUVEC assessed as decrease in Bax levels at 0.1 to 10 uM by Western blot method; assay type: functional, cell-based; details: Homo sapiens
HUVEC [11] = test: Radioprotective activity against 5 Gy gamma radiation-mediated cell damage in HUVEC assessed as viable cells at 10 uM preincubated for 2 hrs followed by 5 Gy gamma irradiation and measured after 24 hrs by annexin-V-FITC/propidium iodide staining-based flow cytometric method (reference value: 65.8%); assay type: functional; details: Homo sapiens, light or radiation study, read-out: Activity
HUVEC [12] = test: as §1, with “late” for “early”, “9.5%)” for “21.2%)”; assay type: functional, Homo sapiens
HUVEC [13] = test: as §2, with “late apoptotic” for “viable”, “9.5%)” for “65.8%)”; assay type: functional, Homo sapiens
HUVEC [14] = test: Cytotoxicity against HUVEC after 24 hrs by MTT assay; assay type: cell-based; details: human
HUVEC [15] = test: as §1, with “1” for “10”; assay type: functional, Homo sapiens
HUVEC [16] = test: Radioprotective activity against 5 Gy gamma radiation-mediated cell damage in HUVEC assessed as reduction of phopsho-p53 levels at 0.1 to 10 uM by Western blot method; assay type: functional, cell-based; details: Homo sapiens
HUVEC [17] = test: Radioprotective activity against 5 Gy gamma radiation-mediated cell damage in HUVEC assessed as increase in cell survival at 0.1 to 10 uM preincubated for 2 hrs followed by 5 Gy gamma irradiation and measured after 48 hrs by MTT assay; assay type: functional, cell-based; details: Homo sapiens
HUVEC [18] = test: Radioprotective activity against 5 Gy gamma radiation-mediated cell damage in HUVEC assessed as viable cells at 0.1 uM preincubated for 2 hrs followed by 5 Gy gamma irradiation and measured after 24 hrs by annexin-V-FITC/propidium iodide staining-based flow cytometric method (reference value: 65.8%); assay type: functional; details: Homo sapiens, light or radiation study, read-out: Activity
HUVEC [19] = test: as §1, with “0.1” for “10”; assay type: functional, Homo sapiens
HUVEC [20] = test: Cytotoxicity against HUVEC at <10 uM after 24 hrs by MTT assay; assay type: cell-based; details: human
HUVEC [21] = test: as §1, with “late” for “early”, “0.01” for “10”, “9.5%)” for “21.2%)”; assay type: functional, Homo sapiens
HUVEC [22] = test: Radioprotective activity against 5 Gy gamma radiation-mediated cell damage in HUVEC assessed as increase in cell survival at 0.01 to 10 uM preincubated for 2 hrs followed by 5 Gy gamma irradiation and measured after 48 hrs by MTT assay; assay type: functional, cell-based; details: Homo sapiens
HUVEC [23] = test: as §2, with “0.01” for “1”; assay type: functional; details: Homo sapiens, light or radiation study, read-out: Activity
HUVEC [24] = test: as §3, with “0.01” for “1”; assay type: functional, Homo sapiens
HUVEC [25] = test: as §1, with “0.01” for “10”; assay type: functional, Homo sapiens
HUVEC [26] = test: Radioprotective activity against 5 Gy gamma radiation-mediated cell damage in HUVEC assessed as decrease in Bax levels at 0.01 to 1 uM by Western blot method; assay type: functional, cell-based; details: Homo sapiens
HUVEC [27] = test: Radioprotective activity against 5 Gy gamma radiation-mediated cell damage in HUVEC assessed as increase in cell survival at 0.01 to 1 uM after 48 hrs by MTT assay; assay type: functional, cell-based; details: Homo sapiens
HUVEC [28] = test: Radioprotective activity against 5 Gy gamma radiation-mediated cell damage in HUVEC assessed as reduction of total p53 levels at 0.01 to 1 uM by Western blot method; assay type: functional, cell-based; details: Homo sapiens
HUVEC [29] = test: Radioprotective activity against 5 Gy gamma radiation-mediated cell damage in HUVEC assessed as reduction of phopsho-p53 levels at 0.01 to 1 uM by Western blot method; assay type: functional, cell-based; details: Homo sapiens
HUVEC [30] = test: Radioprotective activity against 5 Gy gamma radiation-mediated cell damage in HUVEC assessed as increase in Bcl-2 levels at 0.01 to 1 uM by Western blot method; assay type: functional, cell-based; details: Homo sapiens
HUVEC [31] = test: Radioprotective activity against 5 Gy gamma radiation-mediated cell damage in HUVEC assessed as decrease in caspase-3 activation at 0.01 to 1 uM by Western blot method; assay type: functional, cell-based; details: Homo sapiens
HUVEC [32] = test: Radioprotective activity against 5 Gy gamma radiation-mediated cell damage in HUVEC assessed as increase in cell survival at 0.1 to 10 uM after 48 hrs by MTT assay; assay type: functional, cell-based; details: Homo sapiens
HUVEC [33] = test: Radioprotective activity against 5 Gy gamma radiation-mediated cell damage in HUVEC assessed as cell survival at 0.1 uM preincubated for 2 hrs followed by 5 Gy gamma irradiation and measured after 48 hrs by MTT assay relative to control; assay type: functional; details: Homo sapiens, light or radiation study, read-out: Survival

O=C(O)c1ccc(/C=C/S(=O)(=O)Cc2ccc(F)cc2)cc1
Activity (HUVEC [1]): 4.7%
Activity (HUVEC [2]): 0.8%
viability at 1 µM (HUVEC [3]): 85.6%
Activity (HUVEC [4]): Active
Activity (HUVEC [5]): Active
Activity (HUVEC [6]): Active
Activity (HUVEC [7]): 1.6%
Activity (HUVEC [8]): 1.5%
Activity (HUVEC [9]): 1%
Activity (HUVEC [10]): Active
viability at 10 µM (HUVEC [11]): 93.4%
Activity (HUVEC [12]): 1%
Activity (HUVEC [13]): 2.3%
Activity (HUVEC [14]): Toxic
Activity (HUVEC [15]): 10.5%
Activity (HUVEC [16]): Active
Activity (HUVEC [17]): inactive
viability at 0.1 µM (HUVEC [18]): 90.4%
Activity (HUVEC [19]): 7.3%

CC(c1ccccc1)S(=O)(=O)/C=C/c1ccc(C(=O)OC2CC(C)(C)N([O])C(C)(C)C2)cc1 (configuration not stated)
Activity (HUVEC [20]): Non-Toxic

CC1(C)CC(OC(=O)c2ccc(/C=C/S(=O)(=O)Cc3ccc(F)cc3)cc2)CC(C)(C)N1[O]
Activity (HUVEC [2]): 2.7%
viability at 1 µM (HUVEC [3]): 90.8%
Activity (HUVEC [21]): 4%
Activity (HUVEC [20]): Non-Toxic
Activity (HUVEC [7]): 1%
Activity (HUVEC [22]): Active
viability at 0.01 µM (HUVEC [23]): 81%
Activity (HUVEC [8]): 1.4%
Activity (HUVEC [13]): 1.4%
Activity (HUVEC [24]): 1.9%
Activity (HUVEC [15]): 6.8%
viability at 0.1 µM (HUVEC [18]): 88.8%
Activity (HUVEC [25]): 13%
Activity (HUVEC [19]): 7.1%

Cc1ccc(CS(=O)(=O)/C=C/c2ccc(C(=O)O)cc2)cc1
Activity (HUVEC [14]): Toxic

Cc1ccc(/C=C/S(=O)(=O)Cc2ccc(Cl)cc2)cc1
Activity (HUVEC [14]): Toxic

CC1(C)CC(OC(=O)c2ccc(/C=C/S(=O)(=O)Cc3ccc(Cl)cc3)cc2)CC(C)(C)N1[O]
Activity (HUVEC [26]): Active
Activity (HUVEC [27]): Active
Activity (HUVEC [2]): 2.5%
viability at 1 µM (HUVEC [3]): 83.3%
Activity (HUVEC [21]): 2.2%
Activity (HUVEC [20]): Non-Toxic
Activity (HUVEC [7]): 2.1%
Activity (HUVEC [22]): Active
viability at 0.01 µM (HUVEC [23]): 84.7%
Activity (HUVEC [8]): 1.3%
Activity (HUVEC [28]): Active
Activity (HUVEC [29]): Active
Activity (HUVEC [13]): 2.9%
Activity (HUVEC [24]): 1.9%
Activity (HUVEC [30]): Active
Activity (HUVEC [15]): 11.7%
Activity (HUVEC [31]): Active
viability at 0.1 µM (HUVEC [18]): 90%
Activity (HUVEC [25]): 11.2%
Activity (HUVEC [19]): 6.2%

CC(c1ccccc1)S(=O)(=O)/C=C/c1ccc(C(=O)O)cc1 (configuration not stated)
Activity (HUVEC [32]): Active
Activity (HUVEC [14]): Toxic
Activity (HUVEC [17]): Active

O=S(=O)(/C=C/c1ccccc1)Cc1ccc(Cl)cc1
Activity (HUVEC [14]): Toxic

O=C(O)c1ccc(/C=C/S(=O)(=O)Cc2ccc(OC(F)(F)F)cc2)cc1
Activity (HUVEC [1]): 7%
Activity (HUVEC [2]): 4.7%
viability at 1 µM (HUVEC [3]): 81.9%
Activity (HUVEC [32]): Active
Activity (HUVEC [4]): Active
Activity (HUVEC [5]): Active
Activity (HUVEC [6]): Active
Activity (HUVEC [7]): 3.4%
Activity (HUVEC [8]): 4.3%
Activity (HUVEC [9]): 3%
Activity (HUVEC [10]): Active
viability at 0.1 µM (HUVEC [33]): 50%
viability at 10 µM (HUVEC [11]): 81.9%
Activity (HUVEC [12]): 8.1%
Activity (HUVEC [13]): 6.2%
Activity (HUVEC [14]): Toxic
Activity (HUVEC [15]): 8.5%
Activity (HUVEC [16]): Active
viability at 0.1 µM (HUVEC [18]): 83.3%
Activity (HUVEC [19]): 7.8%

COc1ccc(/C=C/S(=O)(=O)Cc2ccc(Cl)cc2)cc1
Activity (HUVEC [14]): Toxic

COc1ccc(CS(=O)(=O)/C=C/c2ccc(C(=O)O)cc2)cc1
Activity (HUVEC [14]): Toxic

O=S(=O)(/C=C/c1ccc(-c2ccccc2)cc1)Cc1ccc(Cl)cc1
Activity (HUVEC [14]): Toxic

O=C(O)c1ccc(/C=C/S(=O)(=O)Cc2ccccc2)cc1
Activity (HUVEC [14]): Toxic

CC(C)(C)c1ccc(CS(=O)(=O)/C=C/c2ccc(C(=O)OC3CC(C)(C)N([O])C(C)(C)C3)cc2)cc1
Activity (HUVEC [20]): Non-Toxic

CC1(C)CC(OC(=O)c2ccc(/C=C/S(=O)(=O)Cc3ccc(OC(F)(F)F)cc3)cc2)CC(C)(C)N1[O]
Activity (HUVEC [26]): Active
Activity (HUVEC [27]): Active
Activity (HUVEC [2]): 2%
viability at 1 µM (HUVEC [3]): 90.3%
Activity (HUVEC [21]): 1.4%
Activity (HUVEC [20]): Non-Toxic
Activity (HUVEC [7]): 1.7%
Activity (HUVEC [22]): inactive
viability at 0.01 µM (HUVEC [23]): 82.5%
Activity (HUVEC [8]): 0.6%
Activity (HUVEC [28]): Active
Activity (HUVEC [29]): Active
Activity (HUVEC [13]): 1.1%
Activity (HUVEC [24]): 1.1%
Activity (HUVEC [30]): Active
Activity (HUVEC [15]): 6.9%
Activity (HUVEC [31]): Active
viability at 0.1 µM (HUVEC [18]): 84.7%
Activity (HUVEC [25]): 15%
Activity (HUVEC [19]): 12.7%

O=C(O)c1ccc(/C=C/S(=O)(=O)Cc2ccc(C(F)(F)F)cc2)cc1
Activity (HUVEC [14]): Toxic

CC(C)(C)c1ccc(CS(=O)(=O)/C=C/c2ccc(C(=O)O)cc2)cc1
Activity (HUVEC [14]): Toxic
